Assay results taken from patent US7868026B2, “Therapeutic compounds” (Pfizer Inc., priority 2005, dated 2011).
Like-named read-outs stand apart in the source and are kept apart here.

Assays:
Format in all cases: biochemical
CYP3A4 [1] = biological target: T1, CYP3A4 (Homo sapiens, UniProt P08684); assay: Determination of IC50 against CYP3A4 by measurement of inhibition of midazolam metabolism (human liver microsomes, 1-hydroxymidazolam by LC-MS/MS); parameters: 0.1 mg/mL human liver microsomes; conditions: 2 μM midazolam, 0.1 mg/mL human liver microsomes
Method in brief: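 Human liver microsomes (0.1 mg/mL) incubated 8 min with 2 μM midazolam and 1 mM NADPH in 100 mM potassium phosphate, pH 7.4. 1-Hydroxymidazolam quantified by LC-MS/MS (MRM) as peak area ratio to internal standard against a metabolite standard curve.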

CYP3A4 [2] = biological target: T1, CYP3A4; assay: Determination of IC50 against CYP3A4 by measurement of inhibition of testosterone metabolism (human liver microsomes, 6-β-OH-testosterone by LC-MS/MS); parameters: 0.1 mg/mL human liver microsomes; conditions: read-out: IC50 (Testo.)
Method in brief: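 Human liver microsomes (0.1 mg/mL) incubated with 25 μM testosterone and 1 mM NADPH in 100 mM potassium phosphate, pH 7.4, for eight minutes. 6-β-OH-testosterone measured by LC-MS/MS in MRM mode against an internal standard and quantified from a metabolite standard curve.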

CYP3A4 [3] = biological target: T1, CYP3A4; assay: Determination of compound Kiapp against recombinant CYP3A4 enzyme (BFC fluorescent substrate)
Method in brief: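 Recombinant CYP3A4 (5.5 or 8 nM, with or without b5 depending on source) pre-incubated with inhibitor ≥30 min at room temperature in 100 mM sodium phosphate pH 7.0, 5 mM TCEP, 2% DMF. Reaction started with 200 uM NADPH and 5 uM BFC; initial fluorescence rates over 5 min fitted to Morrison tight-binding (non-partial) or Szedlacsek (partial) equations for Kiapp.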

[4] = Baculo. enzyme preparation, read-out: Kiapp (BFC, Baculo.)
[5] = Super. enzyme preparation, read-out: Kiapp (BFC, Super.)

T1 sequence (P08684 whole entry): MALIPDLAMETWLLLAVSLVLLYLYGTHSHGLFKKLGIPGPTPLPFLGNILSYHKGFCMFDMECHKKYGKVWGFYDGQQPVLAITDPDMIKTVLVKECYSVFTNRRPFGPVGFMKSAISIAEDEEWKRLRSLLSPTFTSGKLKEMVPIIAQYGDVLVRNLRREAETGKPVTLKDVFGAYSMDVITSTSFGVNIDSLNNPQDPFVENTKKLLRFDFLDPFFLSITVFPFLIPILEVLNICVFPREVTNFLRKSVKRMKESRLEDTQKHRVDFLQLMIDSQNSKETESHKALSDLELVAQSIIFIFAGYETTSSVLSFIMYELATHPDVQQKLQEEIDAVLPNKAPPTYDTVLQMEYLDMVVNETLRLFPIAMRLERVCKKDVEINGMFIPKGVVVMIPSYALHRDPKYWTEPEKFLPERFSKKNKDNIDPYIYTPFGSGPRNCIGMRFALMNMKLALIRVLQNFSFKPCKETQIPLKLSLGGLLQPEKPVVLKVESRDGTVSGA

SMILES | IC50 (CYP3A4 [1]) [µM] | IC50 (CYP3A4 [2]) [µM] | Ki (CYP3A4 [3]; [4]) [µM] | Ki (CYP3A4 [3]; [5]) [µM]
CCOc1cncc(NS(=O)(=O)c2ccccc2C(=O)N(C)Cc2ccc(F)c(F)c2)c1 [Example 289, N-(3,4-difluorobenzyl)-2-{[(5-ethoxypyridin-3-yl)amino]sulfonyl}-N-methylbenzamide] | 0.015 | 0.027 | 0.0059 | 0.00497
CCOc1cncc(NS(=O)(=O)c2ccccc2C(=O)NCCc2ccccc2C)c1 [Example 292, 2-{[(5-ethoxypyridin-3-yl)amino]sulfonyl}-N-[2-(2-methylphenyl)ethyl]benzamide] | < 0.003 | 0.016 | 0.0016 | 0.000618
CCOc1cncc(NS(=O)(=O)c2ccccc2C(=O)NC(C)(C)C)c1 [Example 294, N-(tert-butyl)-2-{[(5-ethoxy-pyridin-3-yl)amino]sulfonyl} benzamide] | 0.024 | 0.057 | 0.135 | 0.0321
CCOc1cncc(NS(=O)(=O)c2ccccc2C(=O)NCCC(C)C)c1 [Example 296, 2-{[(5-ethoxypyridin-3-yl)amino]sulfonyl}-N-(3-methylbutyl)benzamide] | 0.012 | 0.09 | 0.0358 | 0.00932
CCOc1cncc(NS(=O)(=O)c2ccccc2C(=O)N2CCCC(C)(C)C2)c1 [Example 298, 2-[(3,3-dimethylpiperidin-1-yl)carbonyl]-N-(5-ethoxypyridin-3-yl)benzenesulfonamide] | 0.031 | 0.135 | 0.0585 | 0.0156
CCOc1cncc(NS(=O)(=O)c2ccccc2C(=O)NC(C)(C)CC)c1 [Example 300, N-(1,1-dimethylpropyl)-2-{[(5-ethoxypyridin-3-yl)amino]sulfonyl}benzamide] | 0.016 | 0.039 | 0.0576 | 0.0195
COc1cncc(NS(=O)(=O)c2ccc(F)cc2C(=O)NCCC(C)C)c1 [Example 303, 5-fluoro-2-{[(5-methoxypyridin-3-yl)amino]sulfonyl}-N-(3-methylbutyl)benzamide] | 0.03 | 0.156 | 0.118 | 0.0316
COc1cncc(NS(=O)(=O)c2ccc(F)cc2C(=O)N(C)C(C)C)c1 [Example 304, 5-fluoro-N-isopropyl-2-{[(5-methoxypyridin-3-yl)amino]sulfonyl}-N-methylbenzamide] | 0.119 | > 0.75 | 0.536 | 0.171
CCOc1cncc(NS(=O)(=O)c2ccccc2C(=O)N2CCOCC2)c1 [Example 305, N-(5-ethoxypyridin-3-yl)-2-(morpholin-4-ylcarbonyl)benzenesulfonamide] | 0.347 | > 0.75 | 0.753 | 0.27
COc1cncc(NS(=O)(=O)c2ccc(F)cc2C(=O)NCc2ccc(F)cc2)c1 [Example 307, 5-fluoro-N-(4-fluorobenzyl)-2-{[(5-methoxypyridin-3-yl)amino]sulfonyl}benzamide] | 0.044 | 0.036 | 0.143 | 0.0168
COc1cncc(NS(=O)(=O)c2ccc(Cl)cc2C(=O)N2CCCC(C)C2)c1 (stereo not drawn) [Example 308, 4-chloro-N-(5-methoxypyridin-3-yl)-2-[(3-methylpiperidin-1-yl)carbonyl]benzenesulfonamide] | 0.062 | 0.095 | 0.513 | 0.042
COc1cncc(NS(=O)(=O)c2ccc(Cl)cc2C(=O)N(C)C(C)C)c1 [Example 309, 5-chloro-N-isopropyl-2-{[(5-methoxypyridin-3-yl)amino]sulfonyl}-N-methylbenzamide] | 0.149 | 0.427 | 0.808 | 0.145

More lines, now with the values ahead:

IC50 (CYP3A4 [1]) [µM] | IC50 (CYP3A4 [2]) [µM] | Ki (CYP3A4 [3]; [4]) [µM] | Ki (CYP3A4 [3]; [5]) [µM] | SMILES
0.004 | 0.016 | 0.0146 | 0.00394 | CCOc1cncc(NS(=O)(=O)c2ccccc2C(=O)NCc2ccc(F)c(F)c2)c1 [Example 290, N-(3,4-difluorobenzyl)-2-{[(5-ethoxypyridin-3-yl)amino]sulfonyl}benzamide]
0.021 | 0.027 | 0.0045 | 0.00298 | CCOc1cncc(NS(=O)(=O)c2ccccc2C(=O)NCc2ccc(Cl)c(Cl)c2)c1 [Example 291, N-(3,4-dichlorobenzyl)-2-{[(5-ethoxypyridin-3-yl)amino]sulfonyl}benzamide]
0.081 | 0.145 | 0.268 | 0.0581 | CCOc1cncc(NS(=O)(=O)c2ccccc2C(=O)NCC2CC2)c1 [Example 293, N-(cyclopropylmethyl)-2-{[(5-ethoxypyridin-3-yl)amino]sulfonyl}benzamide]
0.042 | 0.231 | 0.184 | 0.042 | COc1cncc(NS(=O)(=O)c2ccc(Cl)cc2C(=O)NCCC(C)C)c1 [Example 295, 5-chloro-2-{[(5-methoxypyridin-3-yl)amino]sulfonyl}-N-(3-methylbutyl)benzamide]
0.17 | > 0.75 | 0.444 | 0.11 | CCOc1cncc(NS(=O)(=O)c2ccccc2C(=O)N2CCCC2)c1 [Example 297, N-(5-ethoxypyridin-3-yl)-2-(pyrrolidin-1-ylcarbonyl)benzenesulfonamide]
0.026 | 0.053 | 0.0565 | 0.0206 | CCOc1cncc(NS(=O)(=O)c2ccccc2C(=O)NC(C)C2CC2)c1 (stereo not drawn) [Example 299, N-(1-cyclopropylethyl)-2-{[(5-ethoxypyridin-3-yl)amino]sulfonyl}benzamide]
0.14 | > 0.75 | 0.409 | 0.152 | CCOc1cncc(NS(=O)(=O)c2ccccc2C(=O)NC2CC2)c1 [Example 301, N-cyclopropyl-2-{[(5-ethoxypyridin-3-yl)amino]sulfonyl}benzamide]
0.023 | 0.11 | 0.0789 | 0.0245 | CCOc1cncc(NS(=O)(=O)c2ccccc2C(=O)NC2CCCCC2)c1 [Example 302, N-cyclohexyl-2-{[(5-ethoxypyridin-3-yl)amino]sulfonyl}benzamide]
0.032 | 0.048 | 0.0778 | 0.0249 | CCCCNC(=O)c1ccccc1S(=O)(=O)Nc1cncc(OCC)c1 [Example 306, N-butyl-2-{[(5-ethoxypyridin-3-yl)amino]sulfonyl}benzamide]
0.053 | 0.064 | 0.14 | 0.0283 | COc1cncc(NS(=O)(=O)c2ccc(Cl)cc2C(=O)NCc2ccc(F)cc2)c1 [Example 310, 5-chloro-N-(4-fluorobenzyl)-2-{[(5-methoxypyridin-3-yl)amino]sulfonyl}benzamide]
0.034 | 0.073 | 0.209 | 0.0762 | COc1cncc(NS(=O)(=O)c2ccccc2C(=O)NC(C)C2CC2)c1 (stereo not drawn) [Example 311, N-(1-cyclopropylethyl)-2-{[(5-methoxypyridin-3-yl)amino]sulfonyl}benzamide]
0.013 | 0.012 | 0.0086 | 0.0035 | COc1cncc(NS(=O)(=O)c2ccccc2C(=O)NCc2ccc(F)c(C(F)(F)F)c2)c1 [Example 312, N-[4-fluoro-3-(trifluoromethyl)benzyl]-2-{[(5-methoxypyridin-3-yl)amino]sulfonyl}benzamide]
